Assay [1] addresses T1, human TRPA1 (Homo sapiens (Human), UniProt O75762). Put plainly: Measurement of TRPA1 antagonist activity (2): as (1), different lot of human TRPA1 expression plasmid. The assay is classed as cell-based. The settings on record: 293T cells transfected with human TRPA1, allylisothiocyanate 20 μM stimulation, calcium fluorescence, read-out: hTRPA1 IC50. On the procedure: Human embryonic kidney-derived 293T cells were cultured in Dulbecco's Modified Eagle Medium containing 10% fetal bovine serum, 10 unit penicillin, and 10 μg streptomycin, plated on a petri dish having a diameter of 10 cm at 3×10^6 cells, and cultured for 24 hr in a CO2 incubator. A reduced serum medium (manufactured by Invitrogen, trade name: OPTI-MEM, 600 μL), a gene transfer reagent (manufactured by Mirus Bio, trade name: Mirus TransIT-293, 18 μL), and human TRPA1 expression plasmid (6 μg) were mixed, the total amount of the mixture was added to the cells on the petri dish to allow for gene transfer. The cells were recovered about for 8 hr later, plated on a poly-D-lysine coated 384 well black/clear bottom plate at 12,000 cells/well, and cultured overnight.
Measurement of Intracellular Calcium Increase
The 384 well plate was recovered, and the medium was removed. A calcium-bonded fluorescent indicator (manufactured by Molecular Device, trade name: Calcium4 Assay Kit, 38 μL) dissolved in assay buffer (1×HBSS, 20 mM HEPES, pH 7.2) was added, and the cells were stained in a CO2 incubator for 1 hr. The cells were taken out at room temperature, stood for not less than 15 min, a test substance (10 μL) was added by a platereader FDSS7000 (Hamamatsu Photonics K.K.) equipped with a 384ch dispenser. After 10 min, allylisothiocyanate (12 μL) was further added at a final concentration of 20 μM, and changes in the relative fluorescence intensity after addition of allylisothiocyanate were measured for 5 min.
Test Substance Preparation
The test substance was dissolved in dimethyl sulfoxide and serially diluted with an assay buffer containing 0.1% bovine serum albumin (1×HBSS, 20 mM HEPES, pH 7.2) to a 4.8-fold concentration of the evaluation concentration. Allylisothiocyanate, which is a known TRPA1 activator, was dissolved in dimethyl sulfoxide to 100 mM, and further diluted 5-fold (100 μM) of the final concentration, like the test substance.
Calculation of Antagonist Activity
Under the test substance-free conditions, the maximum variation range of the fluorescence intensity before and after allylisothiocyanate stimulation was defined to be 100% activity rate, and the variation range before and after buffer stimulation was defined as 0% activity rate. The activity rate on addition of the test substance was determined, and the numerical value obtained by subtracting the activity rate from 100 was defined to be an inhibitory rate. IC50, which is the concentration of the test substance necessary for reaching the 50% inhibitory rate, was calculated from the sigmoid approximate curve by a spreadsheet software Excel-Fit.
Measurement of TRPA1 Antagonist Activity (2)
By a method similar to that in Experimental Example 1-1 except that the lot of human […] expression plasmid is different, the TRPA1 antagonist activity of the test substance was measured.

Assay [2] concerns the target T1, human TRPA1. Put plainly: Measurement of TRPA1 antagonist activity (1): intracellular calcium increase. The settings on record: 293T cells transfected with human TRPA1 expression plasmid; allylisothiocyanate 20 μM stimulation; intracellular calcium fluorescence; read-out: hTRPA1 IC50. The assay is classed as cell-based. The essentials:
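HEK293T cells transiently transfected with full-length human TRPA1, loaded with Calcium4 dye in HBSS/20 mM HEPES pH 7.2. Test compound preincubated 10 min, then allylisothiocyanate added at 20 μM final and fluorescence change followed for 5 min. IC50 from sigmoid fit of percent inhibition relative to agonist and buffer controls.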
(Calcium assays in cells follow changes in intracellular calcium, usually with a dye or a luminescent sensor.)

T1 sequence (O75762 whole entry): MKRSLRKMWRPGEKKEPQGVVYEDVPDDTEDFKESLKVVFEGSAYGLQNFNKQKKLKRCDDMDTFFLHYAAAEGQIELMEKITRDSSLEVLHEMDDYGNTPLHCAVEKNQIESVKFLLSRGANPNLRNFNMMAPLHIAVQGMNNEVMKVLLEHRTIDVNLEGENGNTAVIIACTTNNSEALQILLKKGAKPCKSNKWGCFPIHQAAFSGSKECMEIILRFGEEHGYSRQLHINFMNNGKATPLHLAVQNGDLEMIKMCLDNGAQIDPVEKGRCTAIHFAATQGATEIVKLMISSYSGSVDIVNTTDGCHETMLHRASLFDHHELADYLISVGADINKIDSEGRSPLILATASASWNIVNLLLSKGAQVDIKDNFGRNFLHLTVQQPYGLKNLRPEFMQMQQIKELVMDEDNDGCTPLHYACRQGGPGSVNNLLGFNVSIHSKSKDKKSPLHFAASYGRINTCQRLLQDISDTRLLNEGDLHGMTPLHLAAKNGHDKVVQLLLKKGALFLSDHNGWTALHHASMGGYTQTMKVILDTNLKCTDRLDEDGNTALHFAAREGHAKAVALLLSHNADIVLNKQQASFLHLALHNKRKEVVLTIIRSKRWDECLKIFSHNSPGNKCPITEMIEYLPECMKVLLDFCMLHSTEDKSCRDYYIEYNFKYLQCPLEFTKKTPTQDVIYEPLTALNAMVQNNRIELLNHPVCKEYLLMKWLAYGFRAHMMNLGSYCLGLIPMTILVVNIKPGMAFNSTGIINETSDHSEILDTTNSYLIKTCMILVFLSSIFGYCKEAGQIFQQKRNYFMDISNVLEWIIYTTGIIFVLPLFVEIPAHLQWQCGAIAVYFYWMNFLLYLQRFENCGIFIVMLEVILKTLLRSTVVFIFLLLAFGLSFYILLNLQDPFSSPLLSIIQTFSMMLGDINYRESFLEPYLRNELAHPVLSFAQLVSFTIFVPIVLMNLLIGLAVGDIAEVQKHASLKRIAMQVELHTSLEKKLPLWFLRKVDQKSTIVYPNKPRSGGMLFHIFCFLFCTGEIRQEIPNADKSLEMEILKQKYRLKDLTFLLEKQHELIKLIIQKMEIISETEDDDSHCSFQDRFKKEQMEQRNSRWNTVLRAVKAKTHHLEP

What is called IC50 is the concentration at which inhibition is half-maximal. On to `O=C(NCc1cc(-c2ccc(C(F)(F)F)cc2)nc(N2CCC2)n1)[C@@H]1CCCN1S(=O)(=O)c1cc2ccccc2o1` [Example 328, (2S)-N-[[2-(azetidin-1-yl)-6-[4-(trifluoromethyl)phenyl]pyrimidin-4-yl]methyl]-1-(benzofuran-2-ylsulfonyl)pyrrolidine-2-carboxamide], for which the IC50 on human TRPA1 [1] was 16 nM.

Consider `O=C(NCc1cc(-c2ccc(C(F)(F)F)cc2)nc(N2CCCC2)n1)[C@@H]1CCCN1S(=O)(=O)c1cc2ccccc2o1` [Example 329, (2S)-1-(benzofuran-2-ylsulfonyl)-N-[[2-pyrrolidin-1-yl-6-[4-(trifluoromethyl)phenyl]pyrimidin-4-yl]methyl]pyrrolidine-2-carboxamide], for which the IC50 at human TRPA1 [1] amounted to 14 nM.

On to `O=C(NCc1cc(-c2ccc(C(F)(F)F)cc2)nc(N2CCOCC2)n1)[C@@H]1CCCN1S(=O)(=O)c1cc2ccccc2o1` [Example 330, (2S)-1-(benzofuran-2-ylsulfonyl)-N-[[2-morpholino-6-[4-(trifluoromethyl)phenyl]pyrimidin-4-yl]methyl]pyrrolidine-2-carboxamide], for which the IC50 at human TRPA1 [1] is 15 nM.

For the molecule `O=C(NCc1ccnc(-c2ccc(C(F)F)cc2)c1)[C@@H]1CCCN1S(=O)(=O)c1cc2ccccc2o1` [Example 332, (2S)-1-(benzofuran-2-ylsulfonyl)-N-[[2-[4-(difluoromethyl)phenyl]-4-pyridyl]methyl]pyrrolidine-2-carboxamide], the IC50 on human TRPA1 [1] amounted to 16 nM.

In the case of `O=C(NCc1cc(-c2ccc(C(F)F)cc2)ccn1)[C@@H]1CCCN1S(=O)(=O)c1cc2ccccc2o1` [Example 333, (2S)-1-(benzofuran-2-ylsulfonyl)-N-[[4-[4-(difluoromethyl)phenyl]-2-pyridyl]methyl]pyrrolidine-2-carboxamide], the IC50 at human TRPA1 [1] worked out at 21 nM.

On to `CC(C)(C)OC(=O)c1cc(CNC(=O)[C@@H]2CCCN2S(=O)(=O)c2cc3ccccc3o2)cc(-c2ccc(C(F)(F)F)cc2)c1` [Example 338, tert-butyl 3-[[[(2S)-1-(benzofuran-2-ylsulfonyl)pyrrolidine-2-carbonyl]amino]methyl]-5-[4-(trifluoromethyl)phenyl]-benzoate], for which the IC50 on human TRPA1 [1] turned out to be 12 nM.

Consider `CN(CC(=O)NCc1cc(-c2ccc(C(F)(F)F)cn2)ccn1)S(=O)(=O)c1cc2cc(F)ccc2o1` [Example 339, 2-[(5-fluorobenzofuran-2-yl)sulfonyl-methyl-amino]-N-[[4-[5-(trifluoromethyl)-2-pyridyl]-2-pyridyl]methyl]acetamide], for which the IC50 on human TRPA1 [1] is 11 nM.

In the case of `CN(C(C)(C)C(=O)NCc1cc(-c2ccc(C(F)(F)F)cn2)ccn1)S(=O)(=O)c1cc2cc(F)ccc2o1` [Example 340, 2-[(5-fluorobenzofuran-2-yl)sulfonyl-methyl-amino]-2-methyl-N-[[4-[5-(trifluoromethyl)-2-pyridyl]-2-pyridyl]methyl]propanamide], the IC50 on human TRPA1 [1] is 380 nM.

As to `C[C@@]1(C(=O)NCc2cc(-c3ccc(C(F)(F)F)cn3)ccn2)CCCN1S(=O)(=O)c1cc2cc(F)ccc2o1` [Example 341, (2S)-1-(5-fluorobenzofuran-2-yl)sulfonyl-2-methyl-N-[[4-[5-(trifluoromethyl)-2-pyridyl]-2-pyridyl]methyl]pyrrolidine-2-carboxamide], the IC50 on human TRPA1 [1] worked out at 14 nM.

`C[C@H](C(=O)NCc1cc(-c2ccc(C(F)(F)F)cn2)ccn1)N(C)S(=O)(=O)c1cc2cc(F)ccc2o1` [Example 342, (2R)-2-[(5-fluorobenzofuran-2-yl)sulfonyl-methyl-amino]-N-[[4-[5-(trifluoromethyl)-2-pyridyl]-2-pyridyl]methyl]propanamide]: the IC50 at human TRPA1 [1] was 180 nM.

On to `O=C(CNS(=O)(=O)c1cc2cc(F)ccc2o1)NCc1cc(-c2ccc(C(F)(F)F)cn2)ccn1` [Example 343, 2-[(5-fluorobenzofuran-2-yl)sulfonylamino]-N-[[4-[5-(trifluoromethyl)-2-pyridyl]-2-pyridyl]methyl]acetamide], for which the IC50 at human TRPA1 [1] is 280 nM.

As to `CN(CC(=O)NCc1cc(-c2ccc(C(F)(F)F)cc2)ncn1)S(=O)(=O)c1cc2cc(F)ccc2o1` [Example 344, 2-[(5-fluorobenzofuran-2-yl)sulfonyl-methyl-amino]-N-[[6-[4-(trifluoromethyl)-phenyl]pyrimidin-4-yl]methyl]acetamide], at human TRPA1 [1], the IC50 was determined as 3.3 nM.

Regarding `O=C(CNS(=O)(=O)c1cc2cc(F)ccc2o1)NCc1cc(-c2ccc(C(F)(F)F)cc2)ncn1` [Example 345, 2-[(5-fluorobenzofuran-2-yl)sulfonylamino]-N-[[6-[4-(trifluoromethyl)phenyl]-pyrimidin-4-yl]methyl]acetamide], on human TRPA1 [1], the IC50 was 270 nM.

Take `O=C(NCc1cc(-c2ccc(C(F)(F)F)cn2)ccn1)[C@@H]1CCCN1S(=O)(=O)c1cc2ccncc2o1` [Example 346, (2S)-1-furo[2,3-c]pyridin-2-ylsulfonyl-N-[[4-[5-(trifluoromethyl)-2-pyridyl]-2-pyridyl]methyl]pyrrolidine-2-carboxamide]: at human TRPA1 [1], the IC50 came to 700 nM.

For `CC(C)N(CC(=O)NCc1cc(-c2ccc(C(F)(F)F)cn2)ccn1)S(=O)(=O)c1cc2cc(F)ccc2o1` [Example 348, 2-[(5-fluorobenzofuran-2-yl)sulfonyl-isopropyl-amino]-N-[[4-[5-(trifluoromethyl)-2-pyridyl]-2-pyridyl]methyl]acetamide], the IC50 on human TRPA1 [1] stood at 16 nM.

For `O=C(CN(CC1CC1)S(=O)(=O)c1cc2cc(F)ccc2o1)NCc1cc(-c2ccc(C(F)(F)F)cn2)ccn1` [Example 349, 2-[cyclopropylmethyl-(5-fluorobenzofuran-2-yl)sulfonyl-amino]-N-[[4-[5-(trifluoromethyl)-2-pyridyl]-2-pyridyl]methyl]acetamide], the IC50 at human TRPA1 [1] was found to be 43 nM.

`O=C(CN(Cc1ccccn1)S(=O)(=O)c1cc2cc(F)ccc2o1)NCc1cc(-c2ccc(C(F)(F)F)cc2)ncn1` [Example 353, 2-[(5-fluorobenzofuran-2-yl)sulfonyl-(2-pyridylmethyl)-amino]-N-[[6-[4-(trifluoromethyl)-phenyl]pyrimidin-4-yl]methyl]acetamide]: on human TRPA1 [1], the IC50 worked out at 300 nM.

For the molecule `COCCN(CC(=O)NCc1cc(-c2ccc(C(F)(F)F)cc2)ncn1)S(=O)(=O)c1cc2cc(F)ccc2o1` [Example 357, 2-[(5-fluorobenzofuran-2-yl)sulfonyl-(2-methoxyethyl)-amino]-N-[[6-[4-(trifluoromethyl)-phenyl]pyrimidin-4-yl]methyl]acetamide], the IC50 at human TRPA1 [1] stood at 44 nM.

On to `CC(C)N(CC(=O)NCc1cc(-c2ccc(C(F)(F)F)nc2)ncn1)S(=O)(=O)c1cc2cc(F)ccc2o1` [Example 359, 2-[(5-fluorobenzofuran-2-yl)sulfonyl-isopropyl-amino]-N-[[6-[6-(trifluoromethyl)-3-pyridyl]pyrimidin-4-yl]methyl]acetamide], for which the IC50 at human TRPA1 [1] was 7.9 nM.

Regarding `CC(C)N(CC(=O)NCc1cc(-c2cnc(C(F)(F)F)nc2)ncn1)S(=O)(=O)c1cc2cc(F)ccc2o1` [Example 360, 2-[(5-fluorobenzofuran-2-yl)sulfonyl-isopropyl-amino]-N-[[6-[2-(trifluoromethyl)pyrimidin-5-yl]pyrimidin-4-yl]methyl]acetamide], the IC50 on human TRPA1 [1] is 10 nM.

As for `CN(CC(=O)NCc1cc(-c2ccc(OC(F)(F)F)cc2)ncn1)S(=O)(=O)c1cc2cc(F)ccc2o1` [Example 362, 2-[(5-fluorobenzofuran-2-yl)sulfonyl-methyl-amino]-N-[[6-[4-(trifluoromethoxy)-phenyl]pyrimidin-4-yl]methyl]acetamide], the IC50 at human TRPA1 [1] is 7 nM.

Regarding “(2S)-1-(5-fluorobenzofuran-2-yl)sulfonyl-N-[[3-[[4-(trifluoromethyl)phenyl]methoxy]-phenyl]methyl]pyrrolidine-2-carboxamide [Example 41]”, the IC50 at human TRPA1 [2] amounted to 1.3 nM.

For the molecule “(2S)-1-(benzofuran-2-ylsulfonyl)-N-[[3-[6-(trifluoromethyl)-3-pyridyl]phenyl]methyl]pyrrolidine-2-carboxamide [Example 79]”, at human TRPA1 [2], the IC50 turned out to be 1.6 nM.

The record behind these values is patent US10626112B2, “Heterocyclic sulfonamide derivative and medicine comprising same” (EA PHARMA CO., LTD., priority 2014, dated 2020).
